Experimental data as given in patent US6737383B1, “Herbicidal oxadiazolidines” (priority 1999, dated 2004).

Experiments:
[1] = tested on: crabgrass; test: Test B pre/postemergence crabgrass; type: in vivo, Digitaria sanguinalis; conditions: for Crabgrass plant response rating: scale of 0 to 10 where 0 is no effect and 10 is complete control
How it was run: (§1)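 Herbicidal effect was estimated by eye on a ten-point control scale after plants spent twelve to sixteen days in a greenhouse following soil or foliar treatment. Foliar sprays targeted plants at one to four leaves; all doses were formulated in a non-phytotoxic solvent with surfactant.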

[2] = tested on: surinam grass; test: Test B pre/postemergence surinam grass; type: in vivo, Brachiaria decumbens
How it was run: as §1

[3] = tested on: wheat; test: Test B pre/postemergence wheat; type: in vivo, Triticum aestivum; conditions: for Wheat plant response rating: scale of 0 to 10 where 0 is no effect and 10 is complete control
How it was run: as §1

[4] = tested on: rice; test: Test B flood test rice; type: in vivo, Oryza sativa
How it was run: (§2)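 Plants were grown to the 2-leaf stage before treatment with test chemical, then held in a greenhouse for twelve to sixteen days. Injury was visually rated against untreated controls on a 0–10 scale, where 0 is no effect and 10 is complete control.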

[5] = tested on: purple nutsedge; test: Test B pre/postemergence purple nutsedge; type: in vivo, Cyperus rotundus; conditions: for Nutsedge plant response rating: scale of 0 to 10 where 0 is no effect and 10 is complete control
How it was run: as §1

[6] = tested on: duck salad; test: Test B flood test duck salad; type: in vivo, Heteranthera limosa
How it was run: as §2

[7] = tested on: blackgrass; test: Test B pre/postemergence blackgrass; type: in vivo, Alopecurus myosuroides
How it was run: as §1

[8] = tested on: corn; test: Test B pre/postemergence corn; type: in vivo, Zea mays; conditions: for Corn plant response rating: scale of 0 to 10 where 0 is no effect and 10 is complete control
How it was run: as §1

[9] = tested on: giant foxtail; test: Test B pre/postemergence giant foxtail; type: in vivo, Setaria faberii; conditions: for Giant foxtail plant response rating: scale of 0 to 10 where 0 is no effect and 10 is complete control
How it was run: as §1

[10] = tested on: sugar beet; test: Test B pre/postemergence sugar beet; type: in vivo, Beta vulgaris; conditions: for Sugarbeets plant response rating: scale of 0 to 10 where 0 is no effect and 10 is complete control
How it was run: as §1

[11] = tested on: bamyardgrass; test: Test B flood test barnyardgrass; type: in vivo, Echinochloa crus-galli
How it was run: as §2

[12] = tested on: bedstraw; test: Test B pre/postemergence bedstraw; type: in vivo, Galium aparine
How it was run: as §1

[13] = tested on: wild oat; test: Test B pre/postemergence wild oat; type: in vivo, Avena fatua; conditions: for Wild oats plant response rating: scale of 0 to 10 where 0 is no effect and 10 is complete control
How it was run: as §1

[14] = tested on: smallflower flatsedge; test: Test B flood test smallflower flatsedge; type: in vivo, Cyperus difformis
How it was run: as §2

[15] = tested on: velvetleaf; test: Test B pre/postemergence velvetleaf; type: in vivo, Abutilon theophrasti; conditions: for Velvetleaf plant response rating: scale of 0 to 10 where 0 is no effect and 10 is complete control
How it was run: as §1

[16] = tested on: rape; test: Test B pre/postemergence rape; type: in vivo, Brassica napus; conditions: for Rape plant response rating: scale of 0 to 10 where 0 is no effect and 10 is complete control
How it was run: as §1

[17] = Postemergence, Rate 125 g/ha, scale 0 to 10, 0 is no effect, 10 is complete control
[18] = Preemergence, Rate 62 g/ha, scale 0 to 10 (0 no effect, 10 complete control)
[19] = Rate 500 g/ha, Postemergence, scale 0 to 10, 0 no effect, 10 complete control
[20] = Preemergence, Rate 250 g/ha, scale of 0 to 10 where 0 is no effect and 10 is complete control
[21] = Preemergence, Rate 500 g/ha, scale of 0 to 10 where 0 is no effect and 10 is complete control
[22] = Rate 62 g/ha, Postemergence, scale of 0 to 10 where 0 is no effect and 10 is complete control
[23] = Rate 250 g/ha, Postemergence, scale of 0 to 10 where 0 is no effect and 10 is complete control
[24] = Postemergence (flood test), Rate 125 g/ha, scale 0 to 10, 0 is no effect, 10 is complete control
[25] = Rate 62 g/ha, Postemergence (flood test species), scale of 0 to 10 where 0 is no effect and 10 is complete control
[26] = Rate 62 g/ha, flood test species, Pre-emergence, visual evaluation after twelve to sixteen days
[27] = Rate 125 g/ha, Pre-emergence, flood test species, scale 0 to 10 where 0 is no effect and 10 is complete control
[28] = Rate 250 g/ha, Pre-emergence, flood-test species, scale 0 to 10, 0 is no effect, 10 is complete control
[29] = Rate 500 g/ha, Pre-emergence, flood test species, scale 0 to 10 (0 no effect, 10 complete control)

CCC(CC)n1c(=O)on(C(=O)N(c2ccc(F)cc2)C(C)C)c1=O [Compound 358]
Plant response rating, Crabgrass [1, 17]: 0
Plant response rating, Crabgrass [1, 18]: 9
Crabgrass plant response rating (0 to 10 scale) ([1]; Preemergence, Rate 125 g/ha): 10
Crabgrass plant response rating ([1]; Preemergence, Rate 250 g/ha): 10
Crabgrass plant response rating ([1]; Preemergence, Rate 500 g/ha): 10
Crabgrass plant response rating ([1]; Rate 62 g/ha, Postemergence): 0
Plant response rating, Crabgrass [1, 19]: 7
Plant response rating, B. signalgrass [2, 17]: 0
Plant response rating, B. signalgrass [2, 18]: 1
B. signalgrass plant response rating (0 to 10 scale, 0 is no effect, 10 is complete control) ([2]; Preemergence, Rate 125 g/ha): 3
B. signalgrass plant response rating [2, 20]: 5
B. signalgrass plant response rating [2, 21]: 7
B. signalgrass plant response rating [2, 22]: 0
Plant response rating, B. signalgrass [2, 23]: 1
Plant response rating, B. signalgrass [2, 19]: 2
Plant response rating, Wheat [3, 17]: 3
Plant response rating, Wheat [3, 18]: 0
Wheat plant response rating (0 to 10 scale) ([3]; Preemergence, Rate 125 g/ha): 0
Wheat plant response rating ([3]; Preemergence, Rate 250 g/ha): 1
Wheat plant response rating ([3]; Preemergence, Rate 500 g/ha): 3
Wheat plant response rating ([3]; Rate 62 g/ha, Postemergence): 2
Plant response rating, Wheat [3, 19]: 5
Plant response rating, Rice [4, 24]: 0
Rice plant response rating [4, 25]: 0
Plant response rating, Rice (0 to 10 scale, 0 is no effect, 10 is complete control) [4, 26]: 0
Rice plant response rating [4, 27]: 0
Rice plant response rating [4, 28]: 0
Plant response rating, Rice ([4]; Rate 500 g/ha, listed under Postemergence (flood test species), scale 0 to 10, 0 no effect, 10 complete control): 0
Rice plant response rating [4, 29]: 8
Plant response rating, Nutsedge [5, 17]: 0
Plant response rating, Nutsedge [5, 18]: 0
Nutsedge plant response rating (0 to 10 scale) ([5]; Preemergence, Rate 125 g/ha): 0
Nutsedge plant response rating ([5]; Preemergence, Rate 250 g/ha): 0
Nutsedge plant response rating ([5]; Preemergence, Rate 500 g/ha): 0
Nutsedge plant response rating ([5]; Rate 62 g/ha, Postemergence): 0
Plant response rating, Nutsedge [5, 19]: 0
Plant response rating, Ducksalad [6, 24]: 2
Ducksalad plant response rating [6, 25]: 0
Plant response rating, Ducksalad (0 to 10 scale, 0 is no effect, 10 is complete control) [6, 26]: 0
Ducksalad plant response rating [6, 27]: 0
Ducksalad plant response rating [6, 28]: 0
Ducksalad plant response rating [6, 29]: 2
Plant response rating, Blackgrass [7, 17]: 6
Plant response rating, Blackgrass [7, 18]: 4
Blackgrass plant response rating (0 to 10 scale) ([7]; Preemergence, Rate 125 g/ha): 8
Blackgrass plant response rating [7, 20]: 10
Blackgrass plant response rating [7, 21]: 10
Blackgrass plant response rating [7, 22]: 2
Plant response rating, Blackgrass [7, 23]: 8
Plant response rating, Blackgrass [7, 19]: 8
Plant response rating, Corn [8, 17]: 0
Plant response rating, Corn [8, 18]: 0
Corn plant response rating (0 to 10 scale) ([8]; Preemergence, Rate 125 g/ha): 0
Corn plant response rating ([8]; Preemergence, Rate 250 g/ha): 2
Corn plant response rating ([8]; Preemergence, Rate 500 g/ha): 6
Corn plant response rating ([8]; Rate 62 g/ha, Postemergence): 0
Plant response rating, Corn [8, 19]: 0
Plant response rating, Giant foxtail [9, 17]: 8
Plant response rating, Giant foxtail [9, 18]: 10
Giant foxtail plant response rating (0 to 10 scale) ([9]; Preemergence, Rate 125 g/ha): 10
Giant foxtail plant response rating ([9]; Preemergence, Rate 250 g/ha): 10
Giant foxtail plant response rating ([9]; Preemergence, Rate 500 g/ha): 10
Giant foxtail plant response rating ([9]; Rate 62 g/ha, Postemergence): 3
Plant response rating, Giant foxtail [9, 19]: 8
Plant response rating, Sugarbeets [10, 17]: 0
Plant response rating, Sugarbeets [10, 18]: 0
Sugarbeets plant response rating (0 to 10 scale) ([10]; Preemergence, Rate 125 g/ha): 1
Sugarbeets plant response rating ([10]; Preemergence, Rate 250 g/ha): 3
Sugarbeets plant response rating ([10]; Preemergence, Rate 500 g/ha): 3
Sugarbeets plant response rating ([10]; Rate 62 g/ha, Postemergence): 0
Plant response rating, Sugarbeets [10, 19]: 4
Plant response rating, Barnyardgrass [11, 24]: 2
Barnyardgrass plant response rating [11, 25]: 2
Plant response rating, Barnyardgrass (0 to 10 scale, 0 is no effect, 10 is complete control) [11, 26]: 0
Barnyardgrass plant response rating [11, 27]: 0
Plant response rating, Barnyardgrass ([11]; Rate 250 g/ha, Postemergence (flood test species), scale of 0 to 10 where 0 is no effect and 10 is complete control): 9
Barnyardgrass plant response rating [11, 28]: 9
Barnyardgrass plant response rating [11, 29]: 9
Plant response rating, Bedstraw [12, 17]: 2
Plant response rating, Bedstraw [12, 18]: 0
Bedstraw plant response rating (0 to 10 scale) ([12]; Preemergence, Rate 125 g/ha): 9
Bedstraw plant response rating [12, 20]: 10
Bedstraw plant response rating [12, 21]: 10
Bedstraw plant response rating [12, 22]: 0
Plant response rating, Bedstraw [12, 23]: 3
Plant response rating, Bedstraw [12, 19]: 6
Plant response rating, Wild oats [13, 17]: 3
Plant response rating, Wild oats [13, 18]: 4
Wild oats plant response rating (0 to 10 scale) ([13]; Preemergence, Rate 125 g/ha): 5
Wild oats plant response rating ([13]; Preemergence, Rate 250 g/ha): 9
Wild oats plant response rating ([13]; Preemergence, Rate 500 g/ha): 10
Wild oats plant response rating ([13]; Rate 62 g/ha, Postemergence): 0
Plant response rating, Wild oats [13, 19]: 7
Plant response rating, S. Flatsedge [14, 24]: 0
S. Flatsedge plant response rating [14, 25]: 0
Plant response rating, S. Flatsedge (0 to 10 scale, 0 is no effect, 10 is complete control) [14, 26]: 0
S. Flatsedge plant response rating [14, 27]: 6
S. Flatsedge plant response rating [14, 28]: 8
S. Flatsedge plant response rating [14, 29]: 8
Plant response rating, Velvetleaf [15, 17]: 2
Plant response rating, Velvetleaf [15, 18]: 3
Velvetleaf plant response rating (0 to 10 scale) ([15]; Preemergence, Rate 125 g/ha): 4
Velvetleaf plant response rating ([15]; Preemergence, Rate 250 g/ha): 5
Velvetleaf plant response rating ([15]; Preemergence, Rate 500 g/ha): 8
Velvetleaf plant response rating ([15]; Rate 62 g/ha, Postemergence): 2
Plant response rating, Velvetleaf [15, 19]: 3
Plant response rating, Rape [16, 17]: 1
Plant response rating, Rape [16, 18]: 0
Rape plant response rating (0 to 10 scale) ([16]; Preemergence, Rate 125 g/ha): 0
Rape plant response rating ([16]; Preemergence, Rate 250 g/ha): 4
Rape plant response rating ([16]; Preemergence, Rate 500 g/ha): 4
Rape plant response rating ([16]; Rate 62 g/ha, Postemergence): 1
Plant response rating, Rape [16, 19]: 4
